Laboratory results published in article PMC8918352, “Structure and activity of the DHNA Coenzyme-A Thioesterase from Staphylococcus aureus providing insights for innovative drug development” (Scientific Reports, 2022).

Key:
[1] = test system: SaDHNA WT (DHNA Coenzyme-A thioesterase); assay: Thioesterase activity of SaDHNA wild type (DTNB/TNB, 412 nm); assay type: biochemical, Staphylococcus aureus
Experimental: (§1) To obtain some initial information about SaDHNA thioesterase substrate specificity, two different substrates classified according to their CoA chain length and unsaturation degree were assessed. The longest acyl-CoA chain substrate contained eighteen acyl saturated chain stearoyl-CoA (C18:0), while the shortest chain contained four acyl chain crotonyl-CoA with one unsaturation (C4:1). Thioesterase activity was observed by the increase in free thiol-CoA thioester hydrolysis formation of the 2-nitro-5-thiobenzoate anion (TNB^2−), resulting from the reaction of the thiolate anion (RS^−) with Ellman’s reagent (DTNB^2−) and one mixed disulphide (R-S-TNB^−). […]
(§2) The thioesterase activity of SaDHNA was measured according to a protocol of Rodríguez-Guilbe and co-workers[36]. In a ELISA microplate the formation of 2-nitro-5-thiobenzoate anion (TNB2-) by the reaction of thiolate anion (RS^−) with Ellman′s reagent (DTNB^2−) and one mixed disulphide (R-S-TNB^−) catalysed by purified SaDHNA wild type (WT), D16A and E31N was followed by monitoring the change in absorbance of thionitrobenzoic acid (TNB) at 412 nm (extinction coefficient of 13.600 M^−1 cm^−1) using a TECAN GENios plate reader (XFLUOR4 Version: V 4.40, MTX Lab Systems, Inc, USA). […] In addition, uncatalyzed reaction rates were monitored by the combination of same reagents without the enzyme. […]

[2] = test system: SaDHNA; assay: Intrinsic (tryptophan) fluorescence quenching of SaDHNA by peptides, Stern–Volmer analysis; assay type: binding, Staphylococcus aureus; details: for bimolecular quenching constant (Kq) / shift of SaDHNA emission spectra maximum / fluorescence intensity of SaDHNA: 60 nM SaDHNA; for bimolecular quenching constant (Kq): 100 mM sodium phosphate pH 6.0, 150 mM NaCl, 22 °C, excitation 290 nm, emission 300–420 nm, peptide 60–1000 nM, from second, slower quenching step, five assays; for shift of SaDHNA emission spectra maximum / fluorescence intensity of SaDHNA: peptide up to 1000 nM, pH 6.0, 22 °C; for shift of SaDHNA emission spectra maximum: maximum emission near 340 nm; for quenching mechanism: from Kq above diffusive limit, complex association between SaDHNA and peptides
Experimental: Fluorescence spectroscopy was employed to analyse the inhibition of SaDHNA by the aforementioned peptides. The intrinsic fluorescence quenching was assessed for a gradient concentration of Pep-1 and Pep-2. The emission spectra of SaDHNA in buffer only and SaDHNA quenched with different concentrations of Pep-1 and Pep-2 are shown in Fig. 5a,b, respectively. The amino acid sequence of SaDHNA has three tryptophan residues, W29, W79 and W129 and a corresponding maximum emission near 340 nm. […] According to the quenching theory this may indicate a decrease in the lifetime of the excited state, corresponding to an additional rate process that depopulates the excited state and/or the formation of a non-radioactive ground state between the fluorophore and the quencher resulting in a non-fluorescence emission[25],[26].
The Stern–Volmer theory explains the relationship between fluorescence intensity and the presence of a quencher. The data obtained with different concentrations of peptides were analysed independently of the quenching process. Thereby the bimolecular quenching constant (Kq) assigned to the efficiency of quenching and the binding or affinity constant (Ka) for the associated complex were calculated[27],[28]. […] To investigate the quenching process and to estimate Kq and Ka the data from the second and slower step were considered (Fig. 6b,c, respectively). To estimate the bimolecular quenching constant (Kq), the Stern–Volmer quenching constant (Ksv) was determined from the slopes of Io/I versus Q (quencher concentration) (Fig. 6b) and […], which corresponds approximately to the lifetime of a biomolecule fluorophore in the absence of a quenching agent. Therefore, Kq [M^−1 s^−1] for Pep-1 and Pep-2 were 13.3 × 10^12 ± 0.6 × 10^12 and 9.3 × 10^12 ± 1.8 × 10^12, respectively. According to the diffusion controlled quenching theory Kq values close to 1 × 10 ^10 M^−1 s^−1 are associated with a process involving dynamic quenchers, whereas values of Kq larger than the diffusive limit indicate binding interactions between the fluorophore and the quencher.
As the estimated Kq presented higher values than expected for dynamic quenching, we analysed the data applying static quenching theory to estimate the affinity constant Ka for the associated complex. The intercept of log ((Io-I)/I) versus log Q plot (Fig. 6c) is equal to the logarithm of Ka.. Thereby the intercept antilog calculation determines the Ka values for both peptides.
Fluorescence measurements were performed using a Cary eclipse fluorescence spectrophotometer coupled with a peltier temperature control (Agilent, USA). All assays were carried out in 1 mL cuvettes at 22 °C with excitation/emission slits at 20 nm each. The applied excitation wavelength was 290 nm and emission spectra were collected in the range of 300 up to 420 nm in increments of 1 nm. SaDHNA quenching experiments were performed with two peptides (Pep-1: YGSDGR and Pep-2: EGEYE, using a concentration range from 60 up to 1000 nM. SaDHNA at a concentration of 60 nM in 100 mM sodium phosphate buffer pH 6.0, 150 mM NaCl was applied and small volumes of the stock peptide solution were sequentially added to the cuvette for quenching analysis. Each SaDHNA-peptide assay was performed five times. As a control the fluorescence of all buffer and all peptide solutions were measured to correct the observed fluorescence accordingly. The quenching process was assessed by the Stern–Volmer theory.

[3] = test system: SaDHNA thioesterase; assay: Inhibition of SaDHNA thioesterase activity by peptides; assay type: biochemical, Staphylococcus aureus; details: 100 µM peptide, 10 µM SaDHNA, 50 mM HEPES-K+ pH 7.5, 1 mM DTNB, room temperature, 412 nm; in comparison to control assay without peptides; triplicates
Excerpt: According to the docking analysis, the protein-peptide complex is mediated mainly through six hydrogen bonds formed between Pep-1 and residues present in the putative active site. The benzoyl ring of the tyrosine of Pep-1 has non-covalent π-stacking interactions with the Try45 benzoyl ring of the SaDHNA structure, as well as with the side chain of Ser55 through a hydrogen bond. The residues important for the substrate binding and activity, Glu31 and Asp16, respectively, are predicted to interact with the amide of the peptide backbone and with the side chain of serine of the peptide via hydrogen bonds as well. […]
The thioesterase activity of SaDHNA was measured according to a protocol of Rodríguez-Guilbe and co-workers[36]. In a ELISA microplate the formation of 2-nitro-5-thiobenzoate anion (TNB2-) by the reaction of thiolate anion (RS^−) with Ellman′s reagent (DTNB^2−) and one mixed disulphide (R-S-TNB^−) catalysed by purified SaDHNA wild type (WT), D16A and E31N was followed by monitoring the change in absorbance of thionitrobenzoic acid (TNB) at 412 nm (extinction coefficient of 13.600 M^−1 cm^−1) using a TECAN GENios plate reader (XFLUOR4 Version: V 4.40, MTX Lab Systems, Inc, USA). […] In addition, uncatalyzed reaction rates were monitored by the combination of same reagents without the enzyme.

[4] = test system: HpYbgC; details: in contrast to EcYbgC and HiYbgC; ref [38]; cited from earlier work
Excerpt: In fact, we observed the presence of a long tunnel associated with the binding site of the acyl moiety of the substrate for HpYbgC, which is ...

[5] = test system: SaDHNA E31N; assay: Thioesterase activity of SaDHNA E31N mutant (DTNB/TNB, 412 nm); assay type: biochemical, Staphylococcus aureus; details: stearoyl-CoA as substrate, vs background level
Experimental: as §1, §2

[6] = test system: SaDHNA D16A; assay: Thioesterase activity of SaDHNA D16A mutant (DTNB/TNB, 412 nm); assay type: biochemical, Staphylococcus aureus
Experimental: as §1, §2

[7] = molecular target: 1,4-dihydroxy-2-naphthoyl coenzyme A thioesterase from S. aureus (S. aureus); assay: crystal structure; space group P2_(1), four molecules in the asymmetric unit; crystals from 100 mM HEPES-Na+ pH 7.0, 1.0 M lithium sulphate, 293 K; 1.3 Å
[8] = molecular target: 1,4-dihydroxy-2-naphthoyl coenzyme A thioesterase from S. aureus (S. aureus); assay: DLS + SAXS; SaDHNA at 0.8 to 2.5 mg/ml in 100 mM sodium phosphate buffer pH 6.0, 150 mM NaCl, 10 °C; ab initio model with GASBOR
[9] = molecular target: 1,4-dihydroxy-2-naphthoyl coenzyme A thioesterase from S. aureus (S. aureus); assay: other fluorescence titration; quenching of the intrinsic tryptophan fluorescence of 60 nM SaDHNA by peptide added from 60 up to 1000 nM; 100 mM sodium phosphate buffer pH 6.0, 150 mM NaCl, 22 °C; excitation 290 nm; Stern-Volmer and static quenching analysis of the second, slower quenching step

**Q.** Which “Enzymatic activity (specific activity)” value ([1]; 10 μM enzyme, 50 mM HEPES-K+ pH 7.5, 1 mM DTNB, room temperature, 200 μl, absorbance 412 nm, 100 μM stearoyl-CoA or 1 mM crotonyl-CoA as substrate, triplicates) does the source give for `C/C=C/C(=O)SCCNC(=O)CCNC(=O)[C@H](O)C(C)(C)COP(=O)(O)OP(=O)(O)OC[C@H]1O[C@@H](n2cnc3c(N)ncnc32)[C@H](O)[C@@H]1OP(=O)(O)O` [Crotonyl-CoA (C4:1), crotonyl-CoA] here?
**A.** Its value is 0.27 ± 0.002 nmol TNB/min/mg protein.

**Q.** For YGSDGR [Pep-1], which “bimolecular quenching constant (Kq)” value [2] is on record?
**A.** Its value is 1.33e+13 ± 6e+11 M⁻¹ s⁻¹.

**Q.** And the “shift of SaDHNA emission spectra maximum” value [2]?
**A.** The value was “did not shift the emission spectra maximum”.

**Q.** And the “fluorescence intensity of SaDHNA” value [2]?
**A.** The value was “decrease in the fluorescence intensity”.

**Q.** And the quenching mechanism [2]?
**A.** Its quenching mechanism is “static mechanism”.

**Q.** What about the “higher binding affinity to SaDHNA than Pep-2” value ([2]; ratio of Ka, Pep-1 vs Pep-2) of the same molecule?
**A.** The value was 21 fold.

**Q.** And the “SaDHNA thioesterase activity in presence of peptide (in words)” value [3]?
**A.** Its value is “no detectable activity”.

**Q.** Which “activity of HpYbgC towards long acyl chains” value [4] does the source give for `CCCCCCCCCCCCCCCCCC(=O)SCCNC(=O)CCNC(=O)[C@H](O)C(C)(C)COP(=O)(O)OP(=O)(O)OC[C@H]1O[C@@H](n2cnc3c(N)ncnc32)[C@H](O)[C@@H]1OP(=O)(O)O` [Stearoyl-CoA (C18:0), stearoyl-CoA] here?
**A.** Its value is “more active”.

**Q.** What about the “higher specific activity toward the extended acyl CoA chain in comparison to the short chain crotonyl-CoA” value ([1]; stearoyl-CoA vs crotonyl-CoA) of the same molecule?
**A.** Its value is 474 fold.

**Q.** And the “activity of E31N mutant toward stearoyl-CoA (in words)” value [5]?
**A.** Its value is “no activity was detected above the background level”.

**Q.** What about the “Enzymatic activity (specific activity)” value ([6]; D16A mutant, 10 μM enzyme, 50 mM HEPES-K+ pH 7.5, 1 mM DTNB, room temperature, 412 nm, 100 μM stearoyl-CoA, triplicates) of the same molecule?
**A.** The value was 0.43 ± 0.02 nmol TNB/min/mg protein.

**Q.** What about the “decrease of hydrolysis rate of stearoyl-CoA by the D16A mutant” value ([6]; D16A vs WT, stearoyl-CoA as substrate) of the same molecule?
**A.** Its value is 300 fold.

**Q.** Which stoichiometry N [7] does the source give for “1,4-dihydroxy-2-naphthoyl coenzyme A thioesterase from S. aureus” here?
**A.** The stoichiometry N was 4.

**Q.** What about the stoichiometry N [8] of the same molecule?
**A.** Its stoichiometry N is 4.

**Q.** Which “bimolecular quenching constant (Kq)” value [2] does the source give for EGEYE [Pep-2] here?
**A.** Its value is 9.3e+12 ± 1.8e+12 M⁻¹ s⁻¹.

**Q.** And the “shift of SaDHNA emission spectra maximum” value [2]?
**A.** The value was “slight blue shift of the emission”.

**Q.** And the “fluorescence intensity of SaDHNA” value [2]?
**A.** Its value is “decrease in the fluorescence intensity”.

**Q.** What about the quenching mechanism [2] of the same molecule?
**A.** The quenching mechanism was “static mechanism”.

**Q.** What about the “SaDHNA thioesterase activity in presence of peptide (in words)” value [3] of the same molecule?
**A.** Its value is “no detectable activity”.

**Q.** Which Kq (bimolecular quenching constant) [9] does the source give for EGEYE [Pep-2] here?
**A.** Its Kq (bimolecular quenching constant) is 9.3e+12 M⁻¹ s⁻¹.
